In this test the test system is rat Schwann cells. The test can be described thus: In vitro test using Schwann cells (Schwann cell differentiation promotion, MAG immunostaining). It counts as cell-based. As to conditions: 3 days, MAG-positive area/cell nuclei; for activity at 0.3 µM / activity at 3 µM: Rattus norvegicus, 72 h; for activity at 0.3 µM: read-out: Schwann cell differentiation promotion rate (% of vehicle) 0.3 μmol/L; for activity at 3 µM: read-out: Schwann cell differentiation promotion rate (% of vehicle) 3 μmol/L. As for the experimental part:
Biological Experiment Example 1: In Vitro Test Using Schwann Cells
• (1) Preparation of rat Schwann cells
A dorsal root ganglion (abbreviated as “DRG”, hereinafter) was excised from a newborn rat aged 0 to 2 days in a clean bench and was collected in DMEM. After the collection, the tube was centrifuged at 400 g, at room temperature for 3 minutes, then a supernatant was discarded, and a 0.25% collagenase solution was added. There resultant solution was incubated at 37° C. for 30 minutes to disperse and separate the excised DRG, and was then centrifuged at room temperature at 400 g for 3 minutes, then a supernatant was discarded, and then 0.25% Trypsin/EDTA and DNaseI were added. After the incubation at 37° C. for 30 minutes, trypsin was inactivated with DMEM supplemented with 10% FBS (10% FBS-DMEM), and centrifugation was carried out at room temperature at 400 g for 3 minutes. A supernatant was discarded, then 10% FBS-DMEM was added to the residue to prepare a cell suspension, and then the cell suspension was allowed to pass through a filter (diameter: 70 μm). The number of cells in the cell suspension which passed through the filter was counted to prepare a solution having a concentration of 2.0×10^5 cells/mL, and the suspension was seeded in a poly-D-lysine-coated 96-well black-clear plate in an amount of 100 μL/well and was then statically cultured in a CO2 incubator under the conditions including 5% of CO2, 95% of air and 37° C.
The culture medium in the cell culture plate was removed by suction using an aspirator, and then DMEM supplemented with 1% dialyzed FBS and 100 μmol/L dibutyryl cyclic AMP was added. Subsequently, a solution of a compound of the present invention dissolved in DMSO was added, and the resultant solution was statically cultured in a C02 incubator under the conditions including 5% of C02, 95% of air and a temperature of 37° C. The final concentration of the compound of the present invention in each well in the cell culture plate was adjusted to 0.1, 0.3, 1 or 3 μmol/L.
Three days after the treatment with the compound, formaldehyde was added to each well in the cell culture plate, and the cell culture plate was allowed to stand at room temperature for 30 minutes or longer. A supernatant was discarded, and then a 0.3% tritonX-100 solution was added to each well, and then the cell culture plate was allowed to stand at room temperature for 20 minutes or longer. A supernatant was discarded, then a 5-μg/mL anti-myeline-associated glycoprotein antibody (anti-MAG antibody) solution was added to each well, and then the cell culture plate was allowed to stand at room temperature for 60 minutes or longer or at 4° C. (acceptable range: 1 to 9° C.) overnight. Each well was washed with a 0.1% tritonX-100 solution three times, then a 10-μg/mL Alexa fluor 488 anti-mouse IgG solution was added to each well, and then the cell culture plate was allowed to stand at room temperature for 60 or longer or at 4° C. overnight. Each well was washed with a 0.1% tritonX-100 solution four times, and then a 1-μg/mL Hoechst33342 solution was added to each well to stain nuclei.
The Mag-positive area and the number of cell nuclei in a fluorescent image were calculated. With respect to each of the MAG-positive area and the number of cell nuclei, the sum total of values obtained in 5 viewing fields/well was determined. The values were employed as a value for the MAG-positive area and a value for the number of cell nuclei, respectively, in each well. Subsequently, a value determined by dividing the value for the MAG-positive area in each well by the value for the number of cell nuclei in the well (i.e., MAG/cell nuclei numerical value) was calculated. The Schwann cell differentiation promotion rate was determined for each of the vehicles in accordance with the following formula. […]

With `CC(C)OC(=O)CCc1ccccc1OCC[C@@H](O)/C=C/c1cccc(NS(=O)(=O)c2ccccc2)c1` [Example 10, Propan-2-yl 3-[2-[(E,3R)-5-[3-(benzenesulfonamido)phenyl]-3-hydroxypent-4-enoxy]phenyl]propanoate], the activity at 0.3 µM (compound 0.3 μmol/L) amounted to 86.2%. Also, where the note is “compound 3 μmol/L”, the activity at 3 µM is 593%.
Take `O=C(O)CCc1ccccc1OCC[C@@H](O)/C=C/c1ccccc1NC(=O)c1ccccc1` [Example 12(5), 3-[2-[(E,3R)-5-(2-Benzamidophenyl)-3-hydroxypent-4-enoxy]phenyl]propanoic acid]: the activity at 0.3 µM (compound 0.3 μmol/L) is 147%. Where the note is “compound 3 μmol/L”, the activity at 3 µM turned out to be 234%.
The corresponding values for `O=C(O)CCc1ccccc1OCC[C@@H](O)/C=C/c1cccc(NCc2ccccc2)c1` [Example 12(6), 3-[2-[(E,3R)-5-[3-(Benzylamino)phenyl]-3-hydroxypent-4-enoxy]phenyl]propanoic acid] are 144% and 435%.
The like results for `O=C(O)CCc1ccccc1OCC[C@@H](O)/C=C/c1cccc(S(=O)(=O)Nc2ccccc2)c1` [Example 12(7), 3-[2-[(E,3R)-3-Hydroxy-5-[3-(phenylsulfamoyl)phenyl]pent-4-enoxy]phenyl]propanoic acid] were, in that order, 111% and 379%.
Regarding `O=C(O)CCc1ccccc1OCC[C@@H](O)/C=C/c1cccc(C(=O)Nc2ccccc2)c1` [Example 12(8), 3-[2-[(E,3R)-3-Hydroxy-5-[3-(phenylcarbamoyl)phenyl]pent-4-enoxy]phenyl]propanoic acid], the activity at 0.3 µM (compound 0.3 μmol/L) is 158%. For the same molecule, the activity at 3 µM (compound 3 μmol/L) amounted to 459%.
The like results for `O=C(O)CCc1ccccc1OCC[C@@H](O)/C=C/c1ccccc1CNS(=O)(=O)c1ccccc1` [Example 12(11), 3-[2-[(E,3R)-5-[2-(Benzenesulfonamidomethyl)phenyl]-3-hydroxypent-4-enoxy]phenyl]propanoic acid] were, in that order, 203% and 505%.
The like results for `O=C(O)CCc1ccccc1OCC[C@@H](O)/C=C/c1ccc2c(c1)CN(S(=O)(=O)c1ccccc1)CC2` [Example 13(19), 3-[2-[(E,3R)-5-[2-(Benzenesulfonyl)-3,4-dihydro-1H-isoquinolin-7-yl]-3-hydroxypent-4-enoxy]phenyl]propanoic Acid] were, in that order, 142% and 598%.
On to `O=C(O)CCc1ccccc1OCC[C@@H](O)/C=C/c1cccc(C[C@H](O)c2ccccc2)c1` [Example 26, 3-[2-[(E,3R)-3-Hydroxy-5-[3-[(2S)-2-hydroxy-2-phenylethyl]phenyl]pent-4-enoxy]phenyl]propanoic acid], for which, for the setting “compound 0.3 μmol/L”, the activity at 0.3 µM was 196%. The activity at 3 µM (compound 3 μmol/L) amounted to 439%.
The like results for `O=C(O)CCc1ccccc1OCC[C@@H](O)/C=C/c1cccc(C(O)CCc2ccccc2)c1` (stereo partly drawn) [Example 28, 3-[2-[(E,3R)-3-Hydroxy-5-[3-(1-hydroxy-3-phenylpropyl)phenyl]pent-4-enoxy]phenyl]propanoic acid] were, in that order, 188% and 628%.
`O=C(CCc1ccccc1OCC[C@@H](O)/C=C/c1cccc(NS(=O)(=O)c2ccccc2)c1)N1CCOCC1` [Example 32(1), N-[3-[(E,3R)-3-Hydroxy-5-[2-(3-morpholin-4-yl-3-oxopropyl)phenoxy]pent-1-enyl]phenyl]benzenesulfonamide]: the activity at 0.3 µM (compound 0.3 μmol/L) was determined as 408%.
For `CN(C)C(=O)CCc1ccccc1OCC[C@@H](O)/C=C/c1cccc(NS(=O)(=O)c2ccccc2)c1` [Example 32(2), 3-[2-[(E,3R)-5-[3-(Benzenesulfonamido)phenyl]-3-hydroxypent-4-enoxy]phenyl]-N,N-dimethylpropanamide], the activity at 0.3 µM (compound 0.3 μmol/L) worked out at 340%. Moreover, the activity at 3 µM (compound 3 μmol/L) was 788%.
Consider `O=C(O)CCc1ccccc1OCC[C@@H](O)C1CC1c1cccc(NS(=O)(=O)c2ccccc2)c1` (stereo partly drawn) [Example 39, 3-[2-[(3R)-3-[2-[3-(Benzenesulfonamido)phenyl]cyclopropyl]-3-hydroxypropoxy]phenyl]propanoic acid], for which, under “compound 0.3 μmol/L”, the activity at 0.3 µM is 211%. For the same molecule, for the setting “compound 3 μmol/L”, the activity at 3 µM amounted to 323%.
Turning to `O=C(O)CCc1ccccc1OCC[C@@H](O)/C=C/c1cccc(NS(=O)(=O)Cc2ccccc2)c1` [Example 74(15), 3-[2-[(E,3R)-5-[3-(Benzilsulfonylamino)phenyl]-3-hydroxypent-4-enoxy]phenyl]propanoic acid], the “Schwann cell differentiation promotion rate (% of vehicle) 0.3 μmol/L” value (compound 0.3 μmol/L) is given as 204.5 % of vehicle. The “Schwann cell differentiation promotion rate (% of vehicle) 3 μmol/L” value (compound 3 μmol/L) is 428.1 % of vehicle.
On to `O=C(O)CCc1ccccc1OCC[C@@H](O)/C=C/c1cccc(NS(=O)(=O)c2ccccn2)c1` [Example 74(16), 3-[2-[(E,3R)-3-Hydroxy-5-[3-(pyridin-2-ylsulfonylamino)phenyl]pent-4-enoxy]phenyl]propanoic acid], for which the activity at 0.3 µM (compound 0.3 μmol/L) turned out to be 212%. Moreover, the activity at 3 µM (compound 3 μmol/L) amounted to 300%.
Take `O=C(O)CCc1ccccc1OCC[C@@H](O)/C=C/c1cccc(NS(=O)(=O)c2coc3ccccc23)c1` [Example 74(17), 3-[2-[(E,3R)-5-[3-(1-Benzofuran-3-ylsulfonylamino)phenyl]-3-hydroxypent-4-enoxy]phenyl]propanoic acid]: the activity at 0.3 µM (compound 0.3 μmol/L) was 85.6%. Besides, for the setting “compound 3 μmol/L”, the activity at 3 µM is 252%.
The like results for `O=C(O)CCc1ccccc1OCC[C@@H](O)/C=C/c1cccc(NS(=O)(=O)c2ccsc2)c1` [Example 74(19), 3-[2-[(E,3R)-3-Hydroxy-5-[3-(thiophen-3-ylsulfonylamino)phenyl]pent-4-enoxy]phenyl]propanoic Acid] were, in that order, 187% and 270%.
The like results for `O=C(O)CCc1ccccc1OCC[C@@H](O)CCc1cccc(NS(=O)(=O)C2CCCC2)c1` [Example 75, 3-[2-[(3S)-5-[3-(Cyclopentylsulfonylamino)phenyl]-3-hydroxypentoxy]phenyl]propanoic Acid] were, in that order, 181% and 244%.
The corresponding values for `COC(=O)CCc1ccccc1OCCC(=O)/C=C/c1cccc(NS(=O)(=O)c2ccccc2)c1` [Example 77, Methyl 3-[2-[(E)-5-[3-(benzenesulfonamido)phenyl]-3-oxopent-4-enoxy]phenyl]propanoate] are 115% and 256%.
Take `O=C(O)CCc1ccccc1OCCC/C=C/c1nc(C(O)Cc2ccccc2)cs1` (stereo not shown) [Example 93, 3-[2-[(E)-5-[4-(1-Hydroxy-2-phenylethyl)-1,3-thiazol-2-yl]pent-4-enoxy]phenyl]propanoic acid]: for the setting “compound 0.3 μmol/L”, the activity at 0.3 µM came to 108%. Further, for the setting “compound 3 μmol/L”, the activity at 3 µM was determined as 374%.
The corresponding values for `O=C(O)CCc1ccccc1OCCCC(=O)CCc1cccc(NS(=O)(=O)c2ccccc2)c1` [Example 103, 3-[2-[6-[3-(Benzenesulfonamido)phenyl]-4-oxohexoxy]phenyl]propanoic acid] are 199% and 354%.
On to `O=C(O)CCc1ccccc1CCCC(=O)CCc1cccc(NS(=O)(=O)c2ccccc2)c1` [Example 112, 3-[2-[6-[3-(Benzenesulfonamido)phenyl]-4-oxohexyl]phenyl]propanoic acid], for which the activity at 0.3 µM (compound 0.3 μmol/L) was determined as 255%. For the setting “compound 3 μmol/L”, the activity at 3 µM was determined as 504%.
`O=C(O)CCc1ccccc1OCCC(F)(F)CCc1cccc(NS(=O)(=O)c2ccccc2)c1` [Example 139, 3-[2-[5-[3-(Benzenesulfonamido)phenyl]-3,3-difluoropentoxy]phenyl]propanoic acid]: under “compound 0.3 μmol/L”, the activity at 0.3 µM worked out at 209%. Further, the activity at 3 µM (compound 3 μmol/L) was determined as 541%.
